Laboratory results from publication PMC5325712 (Journal of medicinal chemistry, 2017).
One block for each compound: values may come before it.

Columns and labels:
D3R [1] = conditions: read-out: D3R receptor binding affinities; cited from earlier work
D2R [2] = conditions: 6 compared to 5; cited from earlier work
D3R [3] = target: T1, D3R (Homo sapiens, UniProt P35462); conditions: Table 1; ratio of binding Ki values D2R/D3R
D2R [4] = conditions: at concentrations over 50 μM; cited from earlier work
D2R long isoform = D2R long isoform (Homo sapiens, UniProt P14416); assay: β-arrestin recruitment assay; assay type: cell-based; conditions: dopamine curve-shift / inhibition of dopamine stimulation
D3R [5] = target: T1, D3R; assay: β-arrestin recruitment assay; conditions: dopamine curve-shift assays, best fit by F-test

T1 sequence (P35462 whole entry): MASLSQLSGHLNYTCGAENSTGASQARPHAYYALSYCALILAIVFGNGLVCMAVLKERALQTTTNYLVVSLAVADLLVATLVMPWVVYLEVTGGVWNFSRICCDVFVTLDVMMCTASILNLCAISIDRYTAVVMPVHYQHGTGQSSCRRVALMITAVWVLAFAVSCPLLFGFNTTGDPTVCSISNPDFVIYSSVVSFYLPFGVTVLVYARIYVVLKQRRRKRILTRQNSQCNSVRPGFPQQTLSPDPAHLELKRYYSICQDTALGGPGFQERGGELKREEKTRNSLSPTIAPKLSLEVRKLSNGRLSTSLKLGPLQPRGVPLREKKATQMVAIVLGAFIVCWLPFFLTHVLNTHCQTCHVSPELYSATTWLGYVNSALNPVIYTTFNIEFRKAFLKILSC
Chain of D2R long isoform (P14416 whole entry, canonical isoform): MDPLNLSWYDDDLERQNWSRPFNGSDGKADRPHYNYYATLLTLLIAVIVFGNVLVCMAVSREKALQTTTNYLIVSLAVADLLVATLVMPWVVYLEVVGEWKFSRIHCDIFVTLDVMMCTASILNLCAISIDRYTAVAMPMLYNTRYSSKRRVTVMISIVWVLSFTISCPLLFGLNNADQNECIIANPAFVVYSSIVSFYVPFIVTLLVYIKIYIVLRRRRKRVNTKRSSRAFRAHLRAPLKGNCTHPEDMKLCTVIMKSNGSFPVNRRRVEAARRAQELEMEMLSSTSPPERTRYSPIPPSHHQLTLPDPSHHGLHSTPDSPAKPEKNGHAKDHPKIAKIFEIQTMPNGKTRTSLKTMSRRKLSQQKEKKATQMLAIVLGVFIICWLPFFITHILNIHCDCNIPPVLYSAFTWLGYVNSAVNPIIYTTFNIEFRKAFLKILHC

Structure (SMILES): O=C(NC/C=C/CN1CCN(c2cccc(Cl)c2Cl)CC1)c1ccc(-c2ccccn2)cc1 [Compound 6]
Ki (D3R [1]): ~1 nM
lower affinity at D2R (D2R [2]): ~ 2 fold

Structure (SMILES): N#Cc1cccc(N2CCNCC2)c1 [Compound 8, 3-(Piperazin-1-yl)benzonitrile]
D2/D3 (D3R [3]): 7.5–9.1

Structure (SMILES): N#Cc1ccc2c(c1)CNCC2 [Compound 9b, 7-cyano-1,2,3,4-tetrahydroisoquinoline]
D2/D3 (D3R [3]): 7.5–9.1

Structure (SMILES): CC(C)NC(=O)c1cc2ccccc2[nH]1 [Compound 13b]
mode of action at the D2R (D2R [4]): allosteric antagonist of the D2R with modest negative cooperativity with dopamine

mechanism of antagonism at the D2R (D2R long isoform): competitive antagonist
mechanism of antagonism at the D3R (D3R [5]): competitive antagonist
Structure (SMILES): CCN1CCCC1CNC(=O)c1cc(S(N)(=O)=O)ccc1OC (stereo not shown) [sulpiride]
